Laboratory results taken from paper PMC7851014 (Investigational New Drugs, 2020).

What was measured:
ciPTEC [1] = assay type: cell-based; settings: 2 μM ibrutinib with efflux transporter inhibitors, 48 h
Description: Cytotoxicity was evaluated using a Presto-blue assay as follows: cells were incubated for 1 h with Presto-blue solution (100 μL/well) at 37 °C and […] read using a Jasco FP8300 fluorometer (Tokyo, Japan; excitation wavelength: 560 nm, emission wavelength: 590 nm).

[2] = human, in vivo
Description: (§1) For analysis, 200 μL acetonitrile containing the internal standards was added to 100 μL sample. After mixing and centrifuging, 200 μL supernatant was transferred, and thereafter the solvent was partially evaporated. Before the samples were analyzed by ultra-high-performance liquid chromatography with mass spectrometer detection [21], 100 μL of mobile phase (water:acetonitrile:formic acid, 90:10:0.1 (v:v:v)) was added.
(§2) When no time was available at all, the sample was omitted. […] Pharmacokinetic (PK) data was analyzed using the PKNCA package (version 0.8.1) [22] for the statistical software R (version 3.4.2) [23] and RStudio (version 1.1.383) [24].

ciPTEC [3] = settings: ciPTEC, after 48 h
Description: Medium and cell lysate samples were taken at 1, 2, 3 and 4 h. Each time point was measured in duplicate. Preincubation (t0) analyte concentrations in medium were also analyzed.

clinical [4] = settings: human, in vivo
Description: as §1, §2

clinical [5] = settings: male, human, in vivo, 140 mg
Description: as §1
Time-concentration data of three patients were analyzed. […] When no time was available at all, the sample was omitted. […] Pharmacokinetic (PK) data was analyzed using the PKNCA package (version 0.8.1) [22] for the statistical software R (version 3.4.2) [23] and RStudio (version 1.1.383) [24].

[6] = Ibrutinib and SMT-conjugate pharmacokinetics in human subjects (plasma of patients A and B); settings: for Concentration: omitted (no group)
Description: as §1, §2

C=CC(=O)N1CCC[C@@H](n2nc(-c3ccc(Oc4ccccc4)cc3)c3c(N)ncnc32)C1 [Ibrutinib, reference compound]
cell death (ciPTEC [1]): up to 50% | Cmax [2]: 370 ± 180 (151–683) nM | Ctrough [2]: 6.4 ± 2 (4.3–8.9) nM | ibrutinib metabolized (ciPTEC [3]): ca. 98% | Tmax (clinical [4]): 2.6 h | AUC(0-t) (clinical [5]): 0.325 µM·h | concentration at 1.4 h ([6]; human, in vivo, 420 mg, Concentration, patient A, sample ID 2, T 1.4 h, 1xdd 420mg, group abs): 6.6 nM | concentration at 0.5 h ([6]; human, in vivo, 420 mg, Concentration, patient A, sample ID 5, T 0.5 h, 1xdd 420mg, group abs): 11.8 nM | concentration at 0.8 h ([6]; human, in vivo, 420 mg, Concentration, patient A, sample ID 6, T 0.8 h, 1xdd 420mg, group abs): 14.6 nM | concentration at 22.7 h ([6]; human, in vivo, 420 mg, Concentration, patient A, sample ID 8, T 22.7 h, 1xdd 420mg, group trough): 8.9 nM | concentration at 22.2 h ([6]; human, in vivo, 420 mg, Concentration, patient A, sample ID 10, T 22.2 h, 1xdd 420mg, group trough): 7 nM | concentration at 22.6 h ([6]; human, in vivo, 420 mg, Concentration, patient A, sample ID 11, T 22.6 h, 1xdd 420mg, group trough): 4.3 nM | concentration at 2.5 h ([6]; human, in vivo, 420 mg, Concentration, patient A, sample ID 13, T 2.5 h, 1xdd 420mg, group max): 683 nM | concentration at 3.8 h ([6]; human, in vivo, 420 mg, Concentration, patient A, sample ID 14, T 3.8 h, 1xdd 420mg, group max): 151 nM | concentration at 23.3 h ([6]; human, in vivo, 420 mg, Concentration, patient A, sample ID 19, T 23.3 h, 1xdd 420mg, group trough): 5.5 nM | concentration at 0.8 h ([6]; human, in vivo, 420 mg, Concentration, patient A, sample ID 21, T 0.8 h, 1xdd 420mg, group abs): 143 nM | concentration at 0.8 h ([6]; human, in vivo, 560 mg, Concentration, patient A, sample ID 3, T 0.8 h, 1xdd 560mg, group abs): 3.5 nM | concentration at 2.8 h ([6]; human, in vivo, 560 mg, Concentration, patient B, sample ID 4, T 2.8 h, 1xdd 560mg, group max): 234 nM | concentration at 4.1 h ([6]; human, in vivo, 560 mg, Concentration, patient B, sample ID 7, T 4.1 h, 1xdd 560mg, group max): 360 nM | concentration at 4.4 h ([6]; human, in vivo, 560 mg, Concentration, patient B, sample ID 9, T 4.4 h, 1xdd 560mg, group max): 192 nM | concentration at 2.4 h ([6]; human, in vivo, 560 mg, Concentration, patient B, sample ID 12, T 2.4 h, 1xdd 560mg, group max): 551 nM | concentration at 3.9 h ([6]; human, in vivo, 560 mg, Concentration, patient B, sample ID 17, T 3.9 h, 1xdd 560mg, group max): 578 nM | concentration at 3.8 h ([6]; human, in vivo, 560 mg, Concentration, patient B, sample ID 20, T 3.8 h, 1xdd 560mg, group max): 196 nM | concentration at 4.1 h ([6]; human, in vivo, 560 mg, Concentration, patient B, sample ID 23, T 4.1 h, 1xdd 560mg, group max): 497 nM | concentration at 4.4 h ([6]; human, in vivo, 560 mg, Concentration, patient B, sample ID 24, T 4.4 h, 1xdd 560mg, group max): 323 nM | Concentration ([6]; patient A, sample ID 15, T NA, 1xdd 420mg): 15.8 nM | Concentration ([6]; patient A, sample ID 22, T NA, 1xdd 420mg): 0.9 nM
